Measured values as given in patent publication US8937072B2, “Substituted cyanoaniline compounds, preparation and use thereof” (Sinochem Corporation, priority 2011, dated 2015).
Like-named read-outs stand apart in the source and are kept apart here.

Assays:
wheat powdery mildew = assay: Protectant activity in vivo (whole plant) against wheat powdery mildew; settings: for pest or weed control at 400 µg/mL: Triticum aestivum, 168 h
Description: The method is as followed: The whole plant is used in this test. The compound is dissolved in a proper solvent to get mother solution. The proper solvent is selected from acetone, methanol, DMF and so on according to their dissolving capability to the sample. The volume rate of solvent and testing solution (v/v) is equal to or less than 5%. The mother solution is diluted with water containing 0.1% tween-80 to get the testing solution whose concentration is designed. The testing solution is sprayed to the host plant by a special plant sprayer. The plant is inoculated with fungus after 24 hours. According to the infecting characteristic of fungus, the plant is stored in a humidity chamber and then transferred into greenhouse after infection is finished. And the other plants are placed in greenhouse directly. The activity of compound is obtained by eyeballing after 7 days in common.

corn rust = assay: Protectant activity in vivo (whole plant) against corn rust; settings: for pest or weed control at 6.25 µg/mL / pest or weed control at 25 µg/mL / pest or weed control at 100 µg/mL / pest or weed control at 400 µg/mL: Zea mays, 168 h
Summary of the method: (§1)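 Compound stock in organic solvent (≤5% v/v) diluted in water with 0.1% Tween-80 and sprayed onto whole host plants. Fungal inoculation 24 h later; humidity chamber then greenhouse as the pathogen requires. Activity rated visually, usually after 7 days.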

rice blast = assay: microbe, parasite or virus in culture; type: cell-based; settings: for the inhibition rate against rice blast (%) 0.03 mg/L: Table 21, 0.03 mg/L; for the inhibition rate against rice blast (%) 0.1 mg/L: Table 21, 0.1 mg/L; for the inhibition rate against rice blast (%) 0.3 mg/L: Table 21, 0.3 mg/L; for inhibition at 0.03 µg/mL: read-out: the inhibition rate against rice blast (%) 0.03 mg/L; for inhibition at 0.1 µg/mL: read-out: the inhibition rate against rice blast (%) 0.1 mg/L
cucumber gray mold = assay: Activity in vitro (96-well, High Through Put): inhibition rate against cucumber gray mold; type: cell-based; settings: for inhibition at 25 µg/mL: dose 25 mg/L
Summary of the method: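 Compound in acetone, methanol or DMF was combined with pathogen suspension under sterile conditions and held in a constant-temperature box. After 24 hours germination or growth was scored by eye against an untreated control to give the inhibition rate.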

cucumber downy mildew = assay: Protectant activity in vivo (whole plant) against cucumber downy mildew; settings: for pest or weed control at 12.5 µg/mL / pest or weed control at 25 µg/mL / pest or weed control at 50 µg/mL / pest or weed control at 100 µg/mL / pest or weed control at 400 µg/mL: Cucumis sativus, 168 h; for pest or weed control at 12.5 µg/mL: 12.5 mg/L; for pest or weed control at 100 µg/mL: 100 mg/L
Summary of the method: as §1

[1] = 400 mg/L, read-out: the protectant activity (%) against corn rust
[2] = dose 400 mg/L, read-out: protectant activity against corn rust in vivo
[3] = 25 mg/L, read-out: the protectant activity (%) against cucumber downy mildew
[4] = 50 mg/L, read-out: the protectant activity (%) against cucumber downy mildew
[5] = read-out: the protectant activity (%) against cucumber downy mildew
[6] = Pyricularia oryzae, read-out: inhibition rate against rice blast
[7] = Pyricularia oryzae, read-out: the inhibition rate against rice blast (%) 0.3 mg/L
[8] = 0.9 mg/L, read-out: the inhibition rate against cucumber gray mold (%)
[9] = 2.8 mg/L, read-out: the inhibition rate against cucumber gray mold (%)
[10] = 8.3 mg/L, read-out: the inhibition rate against cucumber gray mold (%)
[11] = dose 25 mg/L, read-out: protectant activity against cucumber downy mildew in vivo

Structure (SMILES)	protectant activity against wheat powdery mildew in vivo (wheat powdery mildew; dose 400 mg/L)	pest or weed control at 6.25 µg/mL (corn rust; 6.25 mg/L)	pest or weed control at 25 µg/mL (corn rust; 25 mg/L)	pest or weed control at 100 µg/mL (corn rust; 100 mg/L)	pest or weed control at 400 µg/mL (corn rust; [1])	pest or weed control at 400 µg/mL (corn rust; [2])	pest or weed control at 12.5 µg/mL (cucumber downy mildew)	pest or weed control at 25 µg/mL (cucumber downy mildew; [3])	pest or weed control at 100 µg/mL (cucumber downy mildew; [5])	inhibition at 0.03 µg/mL (rice blast; Pyricularia oryzae)	inhibition at 0.1 µg/mL (rice blast; Pyricularia oryzae)	inhibition at 0.3 µg/mL (rice blast; [7])	pest or weed control at 400 µg/mL (wheat powdery mildew; dose 400 mg/L)	inhibition at 0.3 µg/mL (cucumber gray mold; 0.3 mg/L)	inhibition at 0.9 µg/mL (cucumber gray mold; [8])	inhibition at 2.8 µg/mL (cucumber gray mold; [9])	inhibition at 8.3 µg/mL (cucumber gray mold; [10])	inhibition at 25 µg/mL (cucumber gray mold; in vitro)	further results
N#Cc1cc([N+](=O)[O-])cc(Br)c1Nc1c(Cl)c(Cl)c(C#N)c(C#N)c1Cl [Compound A-42]	98%	–	–	–	–	–	–	–	–	–	–	–	–	–	–	–	–	–	protectant activity against wheat powdery mildew in vivo (wheat powdery mildew; dose 100 mg/L): 80%
N#Cc1c(Cl)c(Cl)c(Nc2cc(Cl)c(C(F)(F)F)cc2Cl)c(C#N)c1Cl [Compound B-52]	100%	–	–	–	–	–	–	–	–	–	–	–	–	–	–	–	–	–	the protectant activity (%) against corn rust (corn rust; 6.25 mg/L): 70%; the protectant activity (%) against corn rust (corn rust; 25 mg/L): 98%; the protectant activity (%) against corn rust (corn rust; 100 mg/L): 100%; the protectant activity (%) against corn rust (corn rust; 400 mg/L): 100%; protectant activity against corn rust in vivo (corn rust; dose 100 mg/L): 100%; protectant activity against corn rust in vivo (corn rust; dose 400 mg/L): 100%; the inhibition rate against rice blast (%) 0.03 mg/L (rice blast): 100%; the inhibition rate against rice blast (%) 0.1 mg/L (rice blast): 100%; the inhibition rate against rice blast (%) 0.3 mg/L (rice blast): 100%; the inhibition rate against cucumber gray mold (%) (cucumber gray mold; 0.3 mg/L): 0%; the inhibition rate against cucumber gray mold (%) (cucumber gray mold; 0.9 mg/L): 100%; the inhibition rate against cucumber gray mold (%) (cucumber gray mold; 2.8 mg/L): 100%; the inhibition rate against cucumber gray mold (%) (cucumber gray mold; 8.3 mg/L): 100%
N#Cc1c(Cl)c(Cl)c(Nc2nc(Cl)c(Cl)c(Cl)c2Cl)c(C#N)c1Cl [Compound B-128b]	80%	–	–	–	–	–	–	–	–	–	–	–	–	–	–	–	–	–	protectant activity against corn rust in vivo (corn rust; dose 400 mg/L): 100%; protectant activity against cucumber downy mildew in vivo (cucumber downy mildew; dose 100 mg/L): 100%; protectant activity against cucumber downy mildew in vivo (cucumber downy mildew; dose 400 mg/L): 100%; the inhibition rate against rice blast (%) 0.03 mg/L (rice blast): 80%; the inhibition rate against rice blast (%) 0.1 mg/L (rice blast): 80%; the inhibition rate against rice blast (%) 0.3 mg/L (rice blast): 100%
N#Cc1c(Cl)c(Cl)c(C#N)c(Nc2c(Cl)cc(C(F)(F)F)cc2Cl)c1Cl [Compound C-50]	100%	–	–	–	–	–	–	–	–	–	–	–	–	–	–	–	–	–	protectant activity against corn rust in vivo (corn rust; dose 400 mg/L): 100%; the inhibition rate against rice blast (%) 0.03 mg/L (rice blast): 100%; the inhibition rate against rice blast (%) 0.1 mg/L (rice blast): 100%; the inhibition rate against rice blast (%) 0.3 mg/L (rice blast): 100%
N#Cc1c(F)c(F)c(C#N)c(Nc2ccc(C(F)(F)F)cc2Cl)c1F [Compound C-82]	100%	–	–	–	–	–	–	–	–	–	–	–	–	–	–	–	–	–	protectant activity against cucumber downy mildew in vivo (cucumber downy mildew; dose 400 mg/L): 100%
N#Cc1c(F)c(F)c(C#N)c(Nc2ccc(Cl)c(C(F)(F)F)c2)c1F [Compound C-91]	100%	–	–	–	–	–	–	–	–	–	–	–	–	–	–	–	–	–	protectant activity against wheat powdery mildew in vivo (wheat powdery mildew; dose 6.25 mg/L): 70%; protectant activity against wheat powdery mildew in vivo (wheat powdery mildew; dose 100 mg/L): 95%
N#Cc1c(F)c(F)c(C#N)c(Nc2c(Cl)cc(C(F)(F)F)cc2Cl)c1F [Compound C-98]	100%	–	–	–	–	–	–	–	–	–	–	–	–	–	–	–	–	–	protectant activity against corn rust in vivo (corn rust; dose 400 mg/L): 100%; protectant activity against wheat powdery mildew in vivo (wheat powdery mildew; dose 100 mg/L): 80%; inhibition rate against cucumber gray mold (cucumber gray mold; in vitro, dose 8.3 mg/L): 80%
N#Cc1c(Cl)c(Cl)c(Nc2ccc(Cl)cc2)c(C#N)c1Cl [KC2]	–	0%	0%	0%	0%	0%	0%	0%	0%	0%	0%	0%	0%	0%	0%	0%	0%	0%	pest or weed control at 50 µg/mL (cucumber downy mildew; [4]): 0%; pest or weed control at 400 µg/mL (cucumber downy mildew; dose 400 mg/L): 0%; inhibition at 25 µg/mL (rice blast; [6]): 0%
Cc1ccc(Nc2c(Cl)c(Cl)c(C#N)c(Cl)c2C#N)cc1 [KC3]	–	0%	0%	0%	0%	0%	0%	0%	0%	0%	0%	0%	0%	0%	0%	0%	0%	0%	pest or weed control at 50 µg/mL (cucumber downy mildew; [4]): 0%; pest or weed control at 400 µg/mL (cucumber downy mildew; dose 400 mg/L): 0%; inhibition at 25 µg/mL (rice blast; [6]): 0%
COc1ccc(Nc2c(Cl)c(Cl)c(C#N)c(Cl)c2C#N)cc1 [KC4]	–	0%	0%	0%	0%	0%	–	–	–	0%	0%	0%	0%	0%	0%	50%	100%	–	pest or weed control at 25 µg/mL (cucumber downy mildew; [11]): 0%; inhibition at 0.9 µg/mL (rice blast; [6]): 0%; inhibition at 0.9 µg/mL (cucumber gray mold; in vitro, dose 0.9 mg/L, read-out: inhibition rate against cucumber gray mold): 0%; inhibition at 2.8 µg/mL (cucumber gray mold; in vitro, dose 2.8 mg/L, read-out: inhibition rate against cucumber gray mold): 50%
N#Cc1c(Cl)c(Cl)c(Nc2ccc([N+](=O)[O-])cc2)c(C#N)c1Cl [KC5]	–	0%	0%	–	–	0%	0%	0%	–	0%	0%	0%	0%	0%	0%	–	–	0%	pest or weed control at 25 µg/mL (cucumber downy mildew; [11]): 0%; pest or weed control at 50 µg/mL (cucumber downy mildew; dose 50 mg/L, read-out: protectant activity against cucumber downy mildew in vivo): 20%
Cc1cc(Nc2c(Cl)c(Cl)c(C#N)c(Cl)c2C#N)c(C)cc1Cl [KC6]	–	0%	0%	0%	0%	0%	–	–	–	0%	0%	0%	0%	0%	0%	–	–	0%	inhibition at 0.3 µg/mL (rice blast; [6]): 0%
N#Cc1c(F)c(F)c(Nc2ccccc2)c(F)c1C#N [KC13]	–	0%	0%	0%	0%	0%	0%	0%	0%	–	–	–	0%	0%	0%	0%	0%	0%	pest or weed control at 50 µg/mL (cucumber downy mildew; [4]): 0%; pest or weed control at 400 µg/mL (cucumber downy mildew; dose 400 mg/L): 0%
COc1ccc(Nc2c(Cl)c(F)c(C#N)c(F)c2C#N)cc1 [KC20]	–	–	–	–	–	0%	0%	0%	0%	–	–	–	0%	0%	0%	0%	0%	50%	pest or weed control at 50 µg/mL (cucumber downy mildew; [4]): 0%; pest or weed control at 400 µg/mL (cucumber downy mildew; dose 400 mg/L): 0%
N#Cc1ccc(Nc2c(Cl)c(F)c(C#N)c(F)c2C#N)cc1 [KC21]	–	–	–	–	80%	–	–	–	70%	0%	0%	0%	0%	0%	0%	0%	0%	0%	inhibition at 25 µg/mL (rice blast; [6]): 0%
